Entries after “also recorded” stand apart in the source; their conditions may differ.
Assays:
[1] = Adsorption of MB-102 to CRRT apparatus, in vitro CVVH model; format: in vitro ADME, bovine; conditions: for mean percent change at the end of experiment: average of 6 experiments, 60 min
Description: As an initial step, it was determined if the compound MB-102 adsorbs onto the hemodiafilter, tubing or other parts of the CRRT instrument. This study used a continuous venovenous hemofiltration (CVVH) configuration to assess MB-102 adsorptive clearance with a previously validated in vitro CVVH model using 1 L of pH regulated, citrate-anti-coagulated bovine blood. Using a Braun DIAPACT™ CRRT system, two different hemodiafilters were tested: the HF1400 and the M150 hemodiafilters. New bovine blood, hemodiafilters, and CRRT tubing sets were used in each experiment. The blood was continuously stirred and maintained at 37° C. in a water bath during all experiments. Reconstituted MB-102 was added to the blood to achieve a final concentration of ˜6.2 mg/L. Urea was used as a control and added to the blood to produce a blood urea nitrogen (BUN) concentration of ˜75 mg/dL. Blood flow rates of 200 mL/min with an ultrafiltration rate (Quf) of 33 mL/min were tested. This maximized MB-102 contact with the membranes, both on the blood side and via convection through the hemodiafilter membrane. A closed system was developed to maintain a constant volume in the extracorporeal system. The effluent was used as the replacement fluid which was returned to the blood as a post-filter replacement fluid to maintain a constant blood volume. The CRRT instrument was primed with normal saline before operation, consequently the urea and MB-102 dilution caused by the residual priming solution was accounted for. Blood samples were collected from the pre-filter port at 0 (baseline), 5 (at which time mixing was complete), 10, 20, 30, and 60 minutes. Each experiment was repeated six times with new hemodiafilters and tubing sets.
Equations used to calculate the dilution factor and adsorption are as follows:
[formula] wherein C0 is the concentration of MB-102 in the pre-filter at time=0 minutes; and C60 is the concentration of MB-102 in the pre-filter at time=60 minutes.
[formula] where [Urea0] is the urea concentration in the pre-filter at time=0 minutes; and [Urea60] is the urea concentration in the pre-filter at time=60 minutes.
All blood samples were collected and centrifuged at 3000 rpm for 10 minutes. The plasma and effluent samples were transferred to cryovials in duplicate and stored at −80° C. until analysis. BUN concentrations were analyzed with Advia 1800 (Siemens Healthcare Diagnostic Inc., Tarrytown, N.Y., USA) having a lower limit of quantification of 5 mg/dL. […]

[2] = In vivo clearance by CVVH in porcine model with bilateral nephrectomy; design: species or system Swine
Description: Swine (3 male and 3 female, for both CVVH and CVVHD modalities) weighing 35-40 kg were used. In this model, a total functional nephrectomy was achieved by ligation of all renal arteries. Animals were inspected by professional veterinary staff within 48 hours of arrival. Any underlying infections or parasitism was treated based on veterinary recommendations.
Prior to study, the animals were fasted overnight (with water ad libitum) to reduce the risk of aspiration. On the morning of the study, animals were sedated with an intramuscular injection of Telazol/Xylazine (or a Ketamine/xylazine combination) at recommended doses and transported to the operating theatre. Pigs were then anesthetized via inhalation of 5% isoflurane in oxygen via mask. A catheter was placed in the marginal ear vein to provide immediate venous access for further medications and IV fluids.
Pigs were orotracheally intubated and the isoflurane concentration reduced to 1%-3% to maintain anesthesia for the duration of the experiment. Pigs were mechanically ventilated using a tidal volume of 10 mL/kg and respiratory rate adjusted to keep a P(CO2) of 40±2 mmHg. A three lead electrocardiogram was used to monitor heart rate and rhythm. Core body temperature was measured with a rectal thermistor probe and maintained at 37-39° C. with the use of a circulating water blanket.
Hair was removed from the ventral neck, abdominal and/or the femoral regions, and these sites were prepared for aseptic surgery. Lidocaine was injected at incision site(s). When a surgical plane of anesthesia was reached, the right carotid artery was approached via cut down incision and cannulated for continuous blood pressure monitoring. This facilitated withdrawal of blood samples for the study and for the determination of respiratory gases, acid-base status and glucose concentration. A catheter was placed in the right jugular/femoral vein to infuse medications or replacement fluids and an 11 Fr hemodialysis catheter was placed into the left jugular vein for both CVVH and CVVHD procedures.
The abdomen was then opened via a midline laparotomy. The renal hilum was identified, and ties were placed around the renal artery or arteries: for partial or total ligation as dictated by study requirements (full-function nephrectomy via total ligation of all renal arteries, and full-function nephrectomy of one kidney and partial ligation of the second kidney). Perivascular flow probes were placed around the proximal renal artery of the kidneys in situ, as required. […] A purse-sting suture was placed in the urinary bladder and a small cystotomy incision was performed to advance a Foley catheter for urine collection and quantification, as required.
Due to the length of time of study, the abdomen was closed in 2-3 layers with appropriate suture material to prevent desiccation of tissues. Suture patterns allowed for external extension of tubing and flow probe lines for equipment attachment as required. Following complete instrumentation, the pig was stabilized. Vital signs were monitored continuously and, once stable, either the CVVH and CVVHD experiment was initiated.
After taking a pre-MB-102 blood sample (baseline), a dose of 6 mg/kg of MB-102 was injected as a single bolus, followed by a 90 minute period of equilibration, to allow for MB-102 systemic redistribution (see FIGS. 7 and 13 for equilibration of fluorescent signal detected by the renal monitoring assembly). Thirty minutes after the MB-102 injection, Meropenum was infused for 30 minutes, which reached a peak concentration in blood ˜1 hr after the start of the infusion. After drug equilibration, CRRT was initiated (either CVVH or CVVHD) at a blood flow rate (BFR) of 100 mL/min with corresponding 20 mL/kg/hr effluent rate during a time-course of 90 minutes (with collections at 0, 30, 60, 90 minutes). […]

[3] = stated as pharmacokinetic parameter, no test described; cited from earlier work
[4] = assembly on chest (QLS26), blood flow rate 100, effluent flow rate 20 mL/min, 1st of four regions
[5] = assembly on chest (QLS26), blood flow rate 100, effluent flow rate 20 mL/min, 3rd of four regions
[6] = assembly on chest (QLS26), blood flow rate 200, effluent flow rate 35 mL/min, 2nd of four regions
[7] = assembly on chest (QLS26), blood flow rate 200, effluent flow rate 35 mL/min, 4th of four regions
[8] = assembly on sternum (QLS25), blood flow rate 100, effluent flow rate 20 mL/min, 1st of four regions
[9] = assembly on sternum (QLS25), blood flow rate 100, effluent flow rate 20 mL/min, 3rd of four regions
[10] = assembly on sternum (QLS25), blood flow rate 200, effluent flow rate 35 mL/min, 2nd of four regions
[11] = assembly on sternum (QLS25), blood flow rate 200, effluent flow rate 35 mL/min, 4th of four regions

mean percent change at the end of experiment ([1]; HF1400 hemodiafilter): 18.7% | mean percent change at the end of experiment ([1]; M150 hemodiafilter): 18.9% | MB-102 Clearance Rate Constant [2, 4]: 0.1129 h⁻¹ | RDTC [2, 4]: 8.86 h | MB-102 Clearance Rate Constant [2, 5]: 0.0879 h⁻¹ | RDTC [2, 5]: 11.38 h | MB-102 Clearance Rate Constant [2, 6]: 0.1314 h⁻¹ | RDTC [2, 6]: 7.61 h | MB-102 Clearance Rate Constant [2, 7]: 0.1308 h⁻¹ | RDTC [2, 7]: 7.64 h | MB-102 Clearance Rate Constant [2, 8]: 0.1145 h⁻¹ | RDTC [2, 8]: 8.73 h | MB-102 Clearance Rate Constant [2, 9]: 0.0763 h⁻¹ | RDTC [2, 9]: 13.11 h | MB-102 Clearance Rate Constant [2, 10]: 0.145 h⁻¹ | RDTC [2, 10]: 6.90 h | MB-102 Clearance Rate Constant [2, 11]: 0.1238 h⁻¹ | RDTC [2, 11]: 8.08 h
SMILES: Nc1nc(C(=O)N[C@H](CO)C(=O)O)c(N)nc1C(=O)N[C@H](CO)C(=O)O [MB-102, (2R,2′R)-2,2′-((3,6-diaminopyrazine-2,5-dicarbonyl)bis(azanediyl))bis(3-hydroxypropanoic acid)]
adsorption to CRRT materials (tubing, hemodiafilters) ([1]; HF1400 and M150 hemodiafilters): not observed; also recorded: does not bind | protein binding [3]: 0%

— patent publication US12102432B2, “Uses of transdermal glomerular filtration rate measurement in continuous renal replacement therapy” (MediBeacon Inc., priority 2018, dated 2024)
